Experimental data published in patent publication US20230416329A1, “A PEPTIDE WITH DISULFIDE BONDS AND INHIBITORY ACTIVITY AGAINST SERINE PROTEASES, DERIVED HYBRID PEPTIDES THEREOF, AND USES THEREOF” (INSTITUTE OF MATERIA MEDICA , CHINESE ACADEMY OF MEDICAL …, priority 2020, published 2023).
Bridge positions count the residues as written; N and C are the ends.

Test system: normal ICR mice
Experiment: In vivo hypoglycemic activity of GLP-1 analogues, subcutaneous administration, oral glucose loading
Design: species or system mouse
Conditions: normal ICR mice, 1 μmol/kg s.c., glucose 2 g/kg by gavage
Procedure: FIG. 21. In vivo hypoglycemic activities of GLP-1 analogues by subcutaneous administration. Normal ICR mice were subcutaneously injected with GLP-1 and its analogues or corresponding volumes of saline (1.0 μmol/kg, n=10). After 30 min, glucose solution (2 g/kg) was administered by gavage, and blood was collected from the tail tip at 30, 60, and 120 min after glucose administration. Blood glucose was measured using glucose oxidase method, and blood glucose values and area under the blood glucose curve (AUC) were calculated at each timepoint.
The day before the experiment, all of the animals were fasted for 15-16 hours with water ad libitum. On the day of the experiment, the animals were randomly divided according to body weight (n=10). Firstly, the blood was collected from the tail tip at 0 hour, and then the animals were administered subcutaneously with GLP-1 analog (SEQ ID NOs: 194-201, 1 μmol/kg) or saline. After 30 minutes, the animals were administered by gavage with glucose solution (2 g/kg), and the blood was collected from the tail tip at 30, 60, and 120 minutes later. Blood glucose was measured using glucose oxidase method. The blood glucose and area under the blood glucose-time curve (AUC) were calculated.

Ac-Gly-Arg-Cys-Thr-Lys-Ser-Ile-Pro-Pro-Ile-Cys-Phe-Pro-Gly-Gly-Ile-Pro-Ile-Gly-Gly-His-Ala-Glu-Gly-Thr-Phe-Thr-Ser-Asp-Val-Ser-Ser-Tyr-Leu-Glu-Gly-Gln-Ala-Ala-Lys-Glu-Phe-Ile-Ala-Trp-Leu-Val-Lys-Gly-Arg-Gly-Gly-Lys-NH2 (Ac-GRCTKSIPPICFPGGIPIGGHAEGTFTSDVSSYLEGQAAKEFIAWLVKGRGGK-NH2; disulfide 3-11 (inferred)) [Acetylated and Amidated SEQ ID NO: 194]
hypoglycemic activity, subcutaneous injection (in words): did not show any significant differences in their hypoglycemic activity compared to the unmodified molecules

Ac-Gly-Ile-Pro-Ile-Gly-Gly-His-Ala-Glu-Gly-Thr-Phe-Thr-Ser-Asp-Val-Ser-Ser-Tyr-Leu-Glu-Gly-Gln-Ala-Ala-Lys-Glu-Phe-Ile-Ala-Trp-Leu-Val-Lys-Gly-Arg-Gly-Gly-Lys-Gly-Arg-Cys-Thr-Lys-Ser-Ile-Pro-Pro-Ile-Cys-Phe-Pro-NH2 (Ac-GIPIGGHAEGTFTSDVSSYLEGQAAKEFIAWLVKGRGGKGRCTKSIPPICFP-NH2; disulfide 42-50 (inferred)) [Acetylated and Amidated SEQ ID NO: 196]
hypoglycemic activity, subcutaneous injection (in words): did not show any significant differences in their hypoglycemic activity compared to the unmodified molecules

Ac-Gly-Ile-Pro-Ile-Gly-Gly-His-Ala-Glu-Gly-Thr-Phe-Thr-Ser-Asp-Val-Ser-Ser-Tyr-Leu-Glu-Gly-Gln-Ala-Ala-Lys-Glu-Phe-Ile-Ala-Trp-Leu-Val-Lys-Gly-Arg-Gly-Gly-Lys-Gly-Cys-Gly-Arg-Ala-Thr-Lys-Ser-Ile-Pro-Pro-Ile-Cys-Phe-NH2 (Ac-GIPIGGHAEGTFTSDVSSYLEGQAAKEFIAWLVKGRGGKGCGRATKSIPPICF-NH2; disulfide 41-52 (inferred)) [Acetylated and Amidated SEQ ID NO: 200]
hypoglycemic activity, subcutaneous injection (in words): did not show any significant differences in their hypoglycemic activity compared to the unmodified molecules
